Assays:
Assay in all cases: MIC, broth microdilution (CLSI), substance alone or ATB combined with compound at 4 or 8 μg/mL
KPN BAA-1898 = type: cell-based, K. pneumoniae; conditions: KPN BAA-1898; for MIC ATB combined with Example: Example @8 μg/ml
Summary of the method: (§1)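 CLSI M7-A7 broth microdilution. ca-MHB, 5·10^5 CFU/mL log-phase cells, 16-20 h, 35° C, ambient air. Fosfomycin wells + 25 μg/ml glucose-6-phosphate. Visual MIC read.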

KPN UFR42 = type: cell-based, K. pneumoniae; conditions: KPN UFR42; for MIC ATB combined with Example: Example @8 μg/ml; for MIC ATB combined with Example compound: compound @8 μg/ml
Summary of the method: as §1

KPN 6299 = type: cell-based, K. pneumoniae; conditions: for MIC ATB combined with Example: Example @8 μg/ml
Summary of the method: as §1

SAU 29213 = type: cell-based, S. aureus; conditions: for MIC ATB combined with Example / MIC ATB combined with Example compound: SAU 29213; for MIC ATB combined with Example: Example @8 μg/ml; for MIC ATB combined with Example compound: compound @8 μg/ml
Summary of the method: as §1

ECO UFR39 = type: cell-based, E. coli; conditions: ECO UFR39; for MIC ATB combined with Example: Example @8 μg/ml; for MIC ATB combined with Example compound: compound @8 μg/ml
Summary of the method: as §1

ECO 190317 = type: cell-based, E. coli; conditions: ECO 190317; for MIC ATB combined with Example: Example @8 μg/ml
Summary of the method: as §1

ECL P99 = type: cell-based, E. cloacae; conditions: ECL P99; for MIC ATB combined with Example: Example @8 μg/ml
Summary of the method: as §1

PAE UFR48 = type: cell-based, P. aeruginosa; conditions: PAE UFR48; for MIC ATB combined with Example: Example @8 μg/ml; for MIC ATB combined with Example compound: compound @8 μg/ml
Summary of the method: as §1

PAE UFR90 = type: cell-based, P. aeruginosa; conditions: PAE UFR90; for MIC ATB combined with Example: Example @8 μg/ml; for MIC ATB combined with Example compound: compound @8 μg/ml
Summary of the method: as §1

PAE 105250 = type: cell-based, P. aeruginosa; conditions: PAE 105250; for MIC ATB combined with Example: Example @8 μg/ml; for MIC ATB combined with Example compound: compound @8 μg/ml
Summary of the method: as §1

SPN 49619 = type: cell-based, S. pneumoniae; conditions: SPN 49619; for MIC ATB combined with Example: Example @8 μg/ml; for MIC ATB combined with Example compound: compound @8 μg/ml
Summary of the method: as §1

[1] = Escherichia coli, substance alone, read-out: MIC

## O=C1N2CC(n3cncn3)=CC(C2)N1OS(=O)(=O)[O-].[Na+] (stereo not shown) [Example 14, sodium [7-oxo-3-(1,2,4-triazol-1-yl)-1,6-diazabicyclo[3.2.1]oct-3-en-6-yl] sulfate]
KPN BAA-1898; ATB ATM
  MIC ATB combined with Example: <0.031 µg/mL
KPN BAA-1898; ATB FEP
  MIC ATB combined with Example: <0.031 µg/mL
KPN BAA-1898; ATB FOS
  MIC ATB combined with Example: <0.125 µg/mL
KPN BAA-1898; ATB MEM
  MIC ATB combined with Example: <0.031 µg/mL
KPN BAA-1898; ATB PIP
  MIC ATB combined with Example: <0.031 µg/mL
KPN BAA-1898; Klebsiella pneumoniae, BAA1898, substance alone, read-out: MIC
  MIC: 4 µg/mL
KPN BAA-1898; MIC of CIP, compound @8 μg/ml
  MIC ATB combined with Example compound: <0.031 µg/mL
KPN UFR42; ATB ATM
  MIC ATB combined with Example: <0.031 µg/mL
KPN UFR42; ATB FEP
  MIC ATB combined with Example: <0.031 µg/mL
KPN UFR42; ATB FOS
  MIC ATB combined with Example: <0.125 µg/mL
KPN UFR42; ATB MEM
  MIC ATB combined with Example: <0.031 µg/mL
KPN UFR42; ATB PIP
  MIC ATB combined with Example: <0.031 µg/mL
KPN UFR42; Klebsiella pneumoniae, substance alone, read-out: MIC
  MIC: 8 µg/mL
KPN UFR42; MIC of CIP
  MIC ATB combined with Example compound: <0.031 µg/mL
KPN UFR42; MIC of CPO
  MIC ATB combined with Example compound: <0.031 µg/mL
KPN 6299; ATB ATM
  MIC ATB combined with Example: <0.031 µg/mL
KPN 6299; ATB FEP
  MIC ATB combined with Example: <0.031 µg/mL
KPN 6299; ATB FOS
  MIC ATB combined with Example: <0.125 µg/mL
KPN 6299; ATB MEM
  MIC ATB combined with Example: <0.031 µg/mL
KPN 6299; ATB PIP
  MIC ATB combined with Example: <0.031 µg/mL
KPN 6299; MIC of CIP, compound @8 μg/ml
  MIC ATB combined with Example compound: <0.031 µg/mL
SAU 29213; ATB ATM
  MIC ATB combined with Example: <0.031 µg/mL
SAU 29213; ATB FEP
  MIC ATB combined with Example: <0.031 µg/mL
SAU 29213; ATB FOS
  MIC ATB combined with Example: <0.125 µg/mL
SAU 29213; ATB MEM
  MIC ATB combined with Example: <0.031 µg/mL
SAU 29213; ATB PIP
  MIC ATB combined with Example: <0.031 µg/mL
SAU 29213; MIC of CIP
  MIC ATB combined with Example compound: <0.031 µg/mL
SAU 29213; MIC of CLI
  MIC ATB combined with Example compound: <0.0010 µg/mL
SAU 29213; MIC of CPO
  MIC ATB combined with Example compound: <0.031 µg/mL
SAU 29213; MIC of DAP
  MIC ATB combined with Example compound: <0.0020 µg/mL
SAU 29213; MIC of ERY
  MIC ATB combined with Example compound: <0.0020 µg/mL
SAU 29213; MIC of LZD
  MIC ATB combined with Example compound: <0.0078 µg/mL
SAU 29213; MIC of RIF
  MIC ATB combined with Example compound: <0.00012 µg/mL
SAU 29213; MIC of SYN
  MIC ATB combined with Example compound: <0.0020 µg/mL
SAU 29213; MIC of VAN
  MIC ATB combined with Example compound: <0.0039 µg/mL
SAU 29213; Staphylococcus aureus, substance alone, SAU 29213 (MSSA 29213), read-out: MIC
  MIC: 4 µg/mL
ECO UFR39; ATB ATM
  MIC ATB combined with Example: <0.031 µg/mL
ECO UFR39; ATB FEP
  MIC ATB combined with Example: <0.031 µg/mL
ECO UFR39; ATB FOS
  MIC ATB combined with Example: <0.125 µg/mL
ECO UFR39; ATB MEM
  MIC ATB combined with Example: <0.031 µg/mL
ECO UFR39; ATB PIP
  MIC ATB combined with Example: <0.031 µg/mL
ECO UFR39; [1]
  MIC: 2 µg/mL
ECO UFR39; MIC of CIP
  MIC ATB combined with Example compound: <0.031 µg/mL
ECO UFR39; MIC of CPO
  MIC ATB combined with Example compound: <0.031 µg/mL
ECO 190317; ATB ATM
  MIC ATB combined with Example: <0.031 µg/mL
ECO 190317; ATB FEP
  MIC ATB combined with Example: <0.031 µg/mL
ECO 190317; ATB FOS
  MIC ATB combined with Example: <0.125 µg/mL
ECO 190317; ATB MEM
  MIC ATB combined with Example: <0.031 µg/mL
ECO 190317; ATB PIP
  MIC ATB combined with Example: <0.031 µg/mL
ECO 190317; [1]
  MIC: 1 µg/mL
ECO 190317; MIC of CIP, compound @8 μg/ml
  MIC ATB combined with Example compound: <0.031 µg/mL
ECL P99; ATB ATM
  MIC ATB combined with Example: <0.031 µg/mL
ECL P99; ATB FEP
  MIC ATB combined with Example: <0.031 µg/mL
ECL P99; ATB FOS
  MIC ATB combined with Example: <0.125 µg/mL
ECL P99; ATB MEM
  MIC ATB combined with Example: <0.031 µg/mL
ECL P99; ATB PIP
  MIC ATB combined with Example: <0.031 µg/mL
ECL P99; Enterobacter cloacae, substance alone, read-out: MIC
  MIC: 4 µg/mL
ECL P99; MIC of CIP, compound @8 μg/ml
  MIC ATB combined with Example compound: <0.031 µg/mL
PAE UFR48; ATB ATM
  MIC ATB combined with Example: 8 µg/mL
PAE UFR48; ATB FEP
  MIC ATB combined with Example: 16 µg/mL
PAE UFR48; ATB FOS
  MIC ATB combined with Example: 32 µg/mL
PAE UFR48; ATB MEM
  MIC ATB combined with Example: 0.25 µg/mL
PAE UFR48; ATB PIP
  MIC ATB combined with Example: 16 µg/mL
PAE UFR48; MIC of CIP
  MIC ATB combined with Example compound: 4 µg/mL
PAE UFR48; MIC of CPO
  MIC ATB combined with Example compound: >32 µg/mL
PAE UFR90; ATB ATM
  MIC ATB combined with Example: 16 µg/mL
PAE UFR90; ATB FEP
  MIC ATB combined with Example: 4 µg/mL
PAE UFR90; ATB FOS
  MIC ATB combined with Example: 8 µg/mL
PAE UFR90; ATB MEM
  MIC ATB combined with Example: 2 µg/mL
PAE UFR90; ATB PIP
  MIC ATB combined with Example: >32 µg/mL
PAE UFR90; MIC of CIP
  MIC ATB combined with Example compound: 1 µg/mL
PAE UFR90; MIC of CPO
  MIC ATB combined with Example compound: 8 µg/mL
PAE 105250; ATB ATM
  MIC ATB combined with Example: 8 µg/mL
PAE 105250; ATB FEP
  MIC ATB combined with Example: 4 µg/mL
PAE 105250; ATB FOS
  MIC ATB combined with Example: >128 µg/mL
PAE 105250; ATB MEM
  MIC ATB combined with Example: 2 µg/mL
PAE 105250; ATB PIP
  MIC ATB combined with Example: 32 µg/mL
PAE 105250; MIC of CIP
  MIC ATB combined with Example compound: 0.125 µg/mL
PAE 105250; MIC of CPO
  MIC ATB combined with Example compound: 8 µg/mL
SPN 49619; ATB ATM
  MIC ATB combined with Example: <0.031 µg/mL
SPN 49619; ATB FEP
  MIC ATB combined with Example: <=0.031 μg/mL
SPN 49619; ATB FOS
  MIC ATB combined with Example: 0.5 µg/mL
SPN 49619; ATB MEM
  MIC ATB combined with Example: <0.031 µg/mL
SPN 49619; ATB PIP
  MIC ATB combined with Example: 0.063 µg/mL
SPN 49619; MIC of CIP
  MIC ATB combined with Example compound: 0.031 µg/mL
SPN 49619; MIC of CLI
  MIC ATB combined with Example compound: <0.0010 µg/mL
SPN 49619; MIC of CPO
  MIC ATB combined with Example compound: <0.031 µg/mL
SPN 49619; MIC of DAP
  MIC ATB combined with Example compound: <=0.0020 μg/mL
SPN 49619; MIC of ERY
  MIC ATB combined with Example compound: <0.0020 µg/mL
SPN 49619; MIC of LZD
  MIC ATB combined with Example compound: <0.0078 µg/mL
SPN 49619; MIC of RIF
  MIC ATB combined with Example compound: <=0.00012 μg/mL
SPN 49619; MIC of SYN
  MIC ATB combined with Example compound: <=0.0020 μg/mL
SPN 49619; MIC of VAN
  MIC ATB combined with Example compound: <0.0039 µg/mL
SPN 49619; Streptococcus pneumoniae, substance alone, read-out: MIC
  MIC: 8 µg/mL
